Data published in PubChem BioAssay (NCI).
Several values for one entry are separate records, joined by “and”; a condition that tells them apart may be missing. Equal entries are not always repeated.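 48-hour exposure; five concentrations; linearly interpolated endpoints. At the GI50, growth is halved. TGI: concentration producing complete growth inhibition.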

Assays:
Assay in all cases: inhibition of tumour cell growth, NCI panel, 48 h
[1] = system: EKVX NSCLC
[2] = system: LOX IMVI melanoma
[3] = system: M14 melanoma
[4] = system: MCF7 breast
[5] = system: MOLT-4 leukemia
[6] = system: NCI-H226 lung
[7] = system: NCI-H23 lung
[8] = system: NCI-H460 lung
[9] = system: OVCAR-4 ovarian
[10] = system: SF-539 CNS
[11] = system: SK-MEL-2 melanoma

Row | Structure (SMILES) | TGI [1] | TGI [2] | TGI [3] | TGI [4] | TGI [5] | TGI [6] | TGI [7] | TGI [8] | TGI [9] | TGI [10] | TGI [11] | GI50 [4] | GI50 [5] | GI50 [6] | GI50 [7] | GI50 [8] | GI50 [9] | GI50 [10] | GI50 [11]
1 | CC(C)(C)c1ccc(O)c(Br)c1 | > 100 µM | > 100 µM | > 100 µM | > 100 µM | > 100 µM | > 100 µM | > 100 µM | > 100 µM | > 100 µM | > 100 µM | > 100 µM |  |  |  |  |  |  |  | 
2 | Clc1ccc(NCc2nnc(COc3ccc(OCc4nnc(CNc5ccc(Cl)cc5)o4)c(Cl)c3)o2)cc1 | > 100 µM | > 100 µM | > 100 µM | 88.3 µM |  | > 100 µM | > 100 µM | > 100 µM |  |  | > 100 µM |  |  |  |  |  |  |  | 
3 | CC(C)(C)OC(=O)N1C[C@H](CC(=O)OCc2ccccc2)C[C@H]1C(=O)OCC(Cl)(Cl)Cl | > 50 µM | > 50 µM | > 50 µM | > 50 µM | 3.36 µM | 29.1 µM | > 50 µM | > 50 µM | > 50 µM | > 50 µM | 23 µM |  |  |  |  |  |  |  | 
4 | COC1OC(C(=O)CP(=O)(OC)OC)C(OCc2ccccc2)C(OCc2ccccc2)C1OCc1ccccc1 (stereo unspecified) | 29.4 µM and 32.2 µM | 33.1 µM and 32.6 µM | 28.8 µM and 30.4 µM | 30.5 µM | 32.7 µM and 50.3 µM | 39.5 µM and 35.1 µM | 30.3 µM and 32.9 µM | 31.1 µM and 29.4 µM | 28.4 µM and 36.7 µM | 33 µM and 31.9 µM | 30.7 µM and 31.3 µM |  |  |  |  |  |  |  | 
5 | O=C(CSc1nc2ccc(Cl)cc2c(=O)n1-c1ccccc1)N=Nc1c(O)[nH]c2ccc(F)cc12 | 14.4 µM | 3.22 µM | 11 µM | 4.64 µM | 5.56 µM | 12.6 µM | 7.57 µM | 9.77 µM | 5.65 µM | 15.2 µM | 5.3 µM |  |  |  |  |  |  |  | 
6 | CCOC(=O)C(=CNC(Cc1c[nH]c2ccccc12)C(=O)OC)C(=O)OCC (stereo unspecified) | > 100 µM | > 100 µM | > 100 µM |  | > 100 µM | > 100 µM | > 100 µM | > 100 µM |  | > 100 µM | > 100 µM |  |  |  |  |  |  |  | 
7 | CCN(CC)/[N+]([O-])=N/OC | > 100 µM | > 100 µM | > 100 µM |  | > 100 µM | > 100 µM | > 100 µM | > 100 µM |  | > 100 µM | > 100 µM |  |  |  |  |  |  |  | 
8 | C=C1CCCC(C)(C)[C@@H]1CC/C(C)=C/Cn1c2cccc(=O)c-2nc2ccccc21 | 11.4 µM | 2.45 µM |  | > 100 µM and 10.4 µM | 70.7 µM and 9.78 µM | > 100 µM and 21.6 µM |  |  |  | 9.57 µM and 3.55 µM |  | 4.92 µM | 5.55 µM | 21.2 µM | 5.39 µM | 14 µM | 6.28 µM | 3.01 µM | 6.62 µM
9 | O=C(N/N=C\c1ccc([N+](=O)[O-])cc1)Nc1ccccc1 |  |  | > 100 µM | > 100 µM | > 100 µM | > 100 µM | > 100 µM | > 100 µM | > 100 µM |  | > 100 µM |  |  |  |  |  |  |  | 
10 | COc1ccc(Cc2nc3cc(Cl)ccc3o2)cc1 | 78.6 µM | > 100 µM | > 100 µM | > 100 µM | > 100 µM | > 100 µM | > 100 µM | > 100 µM | > 100 µM | > 100 µM | 63.8 µM |  |  |  |  |  |  |  | 
11 | Cn1c2c(c3c(=O)[nH]ncc31)CCc1ccccc1-2 | > 100 µM | 35 µM | 41.7 µM | 79 µM | 75 µM | 94.4 µM | 71.4 µM | 33.6 µM | > 100 µM | > 100 µM | 57.1 µM |  |  |  |  |  |  |  | 
12 | NC(N)=NS(=O)(=O)c1ccc(Nc2c3ccccc3nc3c(C(=O)N4CCN(CCO)CC4)ccc(Cl)c23)cc1 |  |  | > 100 µM |  | > 100 µM | > 100 µM | > 100 µM | > 100 µM | > 100 µM | > 100 µM | > 100 µM |  |  |  |  |  |  |  | 
13 | Cc1cc(O)c2c(c1O)C(=O)c1c(O)ccc(O)c1C2=O | > 100 µM | > 100 µM | > 100 µM | > 100 µM | > 100 µM | > 100 µM | > 100 µM | > 100 µM | > 100 µM | > 100 µM | > 100 µM |  |  |  |  |  |  |  | 
14 | Fc1cc(C2=C[C@H](c3ccc4c(c3)OCO4)NC(=S)N2)c(Cl)cc1Cl | > 100 µM | > 100 µM | > 100 µM | > 100 µM | > 100 µM | > 100 µM | > 100 µM | > 100 µM | > 100 µM | > 100 µM | 62.7 µM |  |  |  |  |  |  |  | 
15 | O=CC(O)C(O)C(O)COc1cc(CO)cc2c1C(=O)c1ccccc1C2=O (stereo unspecified) | > 100 µM | > 100 µM | > 100 µM |  | > 100 µM | > 100 µM | > 100 µM | > 100 µM | > 100 µM | > 100 µM | > 100 µM |  |  |  |  |  |  |  | 
16 | CCCCCCOC(=O)C(N)Cc1ccc(OC)cc1 (stereo unspecified) | > 100 µM | > 100 µM | > 100 µM | > 100 µM | > 100 µM | > 100 µM | > 100 µM | > 100 µM | > 100 µM | > 100 µM | > 100 µM |  |  |  |  |  |  |  | 

Row | Structure (SMILES) | TGI [1] | TGI [2] | TGI [3] | TGI [4] | TGI [5] | TGI [6] | TGI [7] | TGI [8] | TGI [9] | TGI [10] | TGI [11] | GI50 [4] | GI50 [5] | GI50 [6] | GI50 [7] | GI50 [8] | GI50 [9] | GI50 [10] | GI50 [11]
17 | CC(C)(C)OC(=O)N1C(C2=COc3ccccc3O2)=COc2cccnc21 | 4.03 µM | 3.36 µM | 3.65 µM | 3.08 µM | 7 µM | 4.31 µM | 3.25 µM | 3.67 µM | 4.2 µM | 4.01 µM | 3.96 µM |  |  |  |  |  |  |  | 
18 | O=c1oc2c(ccc3occc32)c(N2CCCCC2)c1-c1ccccc1 | > 100 µM | > 100 µM |  | > 100 µM | > 31.7 µM | > 100 µM | > 100 µM | > 100 µM | > 100 µM | > 100 µM | > 100 µM |  |  | > 100 µM |  |  |  |  | 
19 | CC(Br)C(=O)c1ccc2cc(Br)c3ccccc3c2c1 (stereo unspecified) | 28.9 µM | 20.4 µM | 31 µM | 30.1 µM |  |  | 29.7 µM | 30.9 µM | 32.2 µM |  | 26.5 µM |  |  |  |  |  |  |  | 
20 | COc1cc(S(=O)(=O)N/N=C/C=C/c2ccccc2)c(OC)cc1NC(C)=O | > 100 µM | > 100 µM | > 100 µM | > 100 µM |  |  | > 100 µM |  | > 100 µM | 81.7 µM | > 100 µM |  |  |  |  |  |  |  | 
21 | NCCCCN | > 100 µM | > 100 µM | > 100 µM | > 100 µM | > 100 µM | > 100 µM | > 100 µM | > 100 µM | 51.5 µM | > 100 µM | > 100 µM |  |  |  |  |  |  |  | 
22 | NC(CCc1ccccc1)(C(=O)O)c1ccccc1 (stereo unspecified) | > 100 µM | > 100 µM | > 100 µM |  | > 100 µM | > 100 µM | > 100 µM | > 100 µM | > 100 µM |  | > 100 µM |  |  |  |  |  |  |  | 
23 | CCOC(=O)c1c(Nc2ccccc2)sc2cccnc12 | 59 µM | 44.6 µM | 26.4 µM | 59.5 µM | 55.9 µM | 57.1 µM | 67.2 µM | > 88.8 µM | 79.9 µM | 23.6 µM | 49.5 µM |  |  |  |  |  |  |  | 
24 | CCOC(=O)C(Cc1ccc(OC(=O)c2ccc(OC)cc2OC)cc1)NC(=O)C(F)(F)F (stereo unspecified) | 49.6 µM | 36 µM | 33.8 µM | 47.4 µM | > 100 µM | > 100 µM | 45.1 µM | > 100 µM | 55.8 µM | 54.4 µM | 57.5 µM |  |  |  |  |  |  |  | 
25 | COc1cccc(/C=N/[N-]C(N)=O)c1[O-].[Cu+2].[OH3+].c1cnc2c(c1)ccc1cccnc12 | 34.4 µM | 48.2 µM | 28.8 µM |  | > 100 µM | 42.5 µM | 15.8 µM | 79.9 µM | 24.7 µM | 21.6 µM | 32.1 µM |  |  |  |  |  |  |  | 
26 | O=S1c2ccccc2N=C(c2ccc3ccccc3c2)CC1c1ccccc1 (stereo unspecified) | 91.5 µM | 36.5 µM | > 100 µM |  | > 100 µM | 78.9 µM | 39 µM | 41 µM | 56.1 µM | 37.7 µM | 92.3 µM |  |  |  |  |  |  |  | 
27 | CCOc1cc(NC(C)=O)ccc1C(=O)N/N=C/c1ccco1 | > 100 µM | > 100 µM |  | > 100 µM | 74.6 µM | > 100 µM | > 100 µM | > 100 µM | > 100 µM | > 100 µM | > 100 µM |  |  |  |  |  |  |  | 
28 | CCOC(=O)C(C)OC(=O)c1ccc(C)cc1 (stereo unspecified) | > 100 µM | > 100 µM | > 100 µM |  | > 100 µM |  | > 100 µM | > 100 µM |  | > 100 µM | > 100 µM |  |  |  |  |  |  |  | 
29 | CN(C)c1ccc(/C=C2\C[C@H]3[C@@H]4CCC5=CC(=O)CC[C@]5(C)[C@H]4CC[C@]3(C)C2=O)cc1 | > 100 µM | 41.7 µM | > 100 µM | > 100 µM | > 100 µM | > 100 µM | > 100 µM | 51.1 µM | > 100 µM | > 100 µM | > 100 µM |  |  |  |  |  |  |  | 
30 | COC(=O)c1c(O)ccc2c1c1c(n2Cc2ccccn2)C(=O)c2ccccc2C1 |  | > 100 µM | > 100 µM | > 100 µM | > 100 µM | > 100 µM | > 100 µM | > 100 µM | > 100 µM | > 100 µM | > 100 µM |  |  |  |  |  |  |  | 
31 | O=C(COC(c1ccc(F)cc1)c1ccc(F)cc1)N1CCN(CCCc2ccccc2)CC1 | 17.3 µM | 16.2 µM | 16.2 µM | 12.6 µM | > 100 µM | 8.73 µM | 7.91 µM | 13.5 µM | 12.6 µM | 17.3 µM | 15.4 µM |  |  |  |  |  |  |  | 
32 | CC(C)c1ccc2c(c1)[C@@]1(C)CC[C@H](C)C(C)(C)C1CC2 (stereo partly specified) | 35.2 µM | 32 µM | 34.8 µM | 32.1 µM | 94.7 µM | 32.3 µM | 35.6 µM | 36.9 µM | 30.3 µM | 39.6 µM | 63.3 µM |  |  |  |  |  |  |  | 
